The subject of one data set is Th1 and Th2 cytokines. The experiment in a line: Cytokine levels of mitogen-stimulated splenocytes, ex vivo. Conditions: 3 days. It counts as in vivo, mice. The procedure:
Mice were sensitized with SRBC and after 5 days were injected with β-oxa-21:3n-3 or vehicle intraperitoneally. After 2 h spleens were removed, cell suspensions prepared and incubated in the presence of mitogens PHA/PMA or PMA/A23187. After 3 days of incubation, the culture fluids and were harvested and used to determine the levels of Th1 and Th2 cytokines. Baseline subtracted levels of cytokines plotted in the presence of vehicle or β-oxa-21:3n-3. The values represent the mean±SEM separate experiments each conducted in quintuplets.
(§1) 6-7 weeks old Balb/c mice were injected subcutaneously with 100 μl of 10% sheep red blood cells (IMVS, Inc., Adelaide, Australia) After 5 days 100 ul of β-oxa-21:3n-3 at indicated amounts were injected intraperitoneally, intravenously or gavaged orally. In another experimental set up mice were given β-tha-21:3n-3 i.p. In a third approach mice were infected subcutaneously with 100 μl of Tetanus Toxoid (2,500 Lf/ml). Then 7 days later were given β-oxa-21:3n-3. At indicated time points mice were sacrificed and spleens were removed. Single cell suspensions were prepared and white blood cells (WBC) were enriched by passing through Ficoll-Paque Plus (GE Healthcare). Cells were washed with RPMI-1640 containing 10% fetal bovine serum, 10 mM Hepes, antibiotics and glutamine (RPMI-10) and counted using an automated Cell-Dyne 3500R (Abbott, Inc. MA) instrument. Cells were viable (>98%) as judged by trypan blue exclusion. (β-oxa-21:3n-3)- or vehicle-treated mouse samples (200,000/well) were mixed either with SRBC (600,000/well) with 100 μl of Tetanus toxoid (50 Lf/ml) or phytohaemaglutinin (PHA) (2 μg/ml) or with PHA plus phorbol myristate acetate (PMA) (10 ng/ml) or with PMA plus calcium ionophore A23187 ([…]). Cells were cultured in 96 well U bottom plates (Nunc, Inc. Denmark) for 3 days (except for TT −5 days) at 37° C. under humidified air containing 5% CO2. At some instances 50 μl of supernatants were transferred to a new plate and frozen immediately at −70° C. to be used for cytokine measurements. Thymidine (50 μl, 1 μCi/well) was added at final 16 hours of culture. Cells were harvested and thymidine incorporation was determined using a beta scintillation counter.
To determine whether or not these effects were due to non-specific suppression of the immune system, we examined the production of Th1 and Th2 cytokines in mitogen-activated mononuclear leukocytes. Splenocytes from (β-oxa-21:3n-3)- or vehicle-administered pre-immune animals were cultured for 3 days in the presence of PHA-PMA or PMA-A23187. The cell culture fluids were collected and cytokines measured.

In data set [1] the test system is Th1, Th2 and macrophage-related cytokines. The experiment in a line: Ex vivo cytokine production by antigen (SRBC)-stimulated splenocytes. Conditions: splenocytes cultured 3 days with SRBC, IP dosing. It counts as in vivo, mice.
Another data set has as its system human lymphocytes. The experiment in a line: Human lymphocyte proliferation assay, mitogen (PHA)-induced. As to conditions: PHA-stimulated human lymphocytes, in vitro; read-out: IC50 for the PHA-stimulated response. It counts as cell-based.
A further data set concerns spleen cells. The experiment in a line: Viability and composition of splenic cells by microscopy and flow cytometry. It is filed as in vivo, mice. The procedure: Data acquisition was performed using a BD Immunocytometry Systems four-color FACScalibur (Mountain View, Calif.), and the acquired data were analyzed using FloJo software (Tree Star Inc., Palo Alto, Calif.).
To exclude that this effect of β-oxa-21:3n-3 was not due to necrosis or apoptosis of the splenic cells, we examined the viability and composition of live splenic cells from animals treated with this fatty acid, by microscopy and flow cytometry.

Data set [2] has as its system splenocytes. The experiment in a line: Mitogen (PHA/PMA, PMA/A23187, PHA)-stimulated splenocyte adhesion and proliferation, ex vivo. It is filed as in vivo, mice. On the procedure:
(A) β-oxa-21:3n-3 or vehicle was injected intraperitoneally to 5 day SRBC-sensitized mice. After 2 h splenocytes (1×10^6 cells) were cultured in a 24 well tissue culture plate (Nunc, Inc. […] Cells were fixed with 2% Para formaldehyde and inspected under a light microscopy and photographed. (B) β-oxa-21:3n-3 or vehicle was injected intraperitoneally or intravenously to 5 day SRBC-sensitized mice. After 2 h splenocytes (0.2 million) were cultured in a 96 well tissue culture plate (Nunc, Inc. Denmark) in the presence of PHA and PMA (PHA/PMA) or PMA (10 ng/ml) and A23187 ([…]) (PMA/A23187) for 3 days. Thymidine incorporation for final 16 hours of culture was determined. The data represents the mean±SEM of 3 separate experiments each conducted in quintuplets.
as §1
To assess whether or not the immunosuppression observed was restricted to antigen-dependent stimulation, we explored the effect of β-oxa-21:3n-3 on mitogen-induced splenocyte adhesion and proliferation. […] The cells were cultured for 3 days and the extent of proliferation was assessed by thymidine incorporation.

Data set [3] deals with splenocytes. The experiment in a line: Ex-vivo antigen (SRBC)-dependent splenocyte proliferation after administration to SRBC-immunized mice (thymidine incorporation). It is filed as in vivo, Balb/c mice. The procedure:
Mice were immunized with SRBC for 5 days. β-oxa-21:3n-3 was delivered in DMSO and injected intraperitoneally at the indicated doses. After 2 h spleens were removed and single cell suspensions were prepared. The splenocytes were cultured for 3 days in the presence (□), or absence (▪) of SRBC. Thymidine incorporation for final 16 hours of culture was determined. The data is expressed as mean±SEM of 3 separate experiments each in triplicate.
Mice were immunized with SRBC for 5 days. Then β-oxa-21:3n-3 dissolved in syngeneic mouse serum and injected intraperitoneally (A), intravenously (B) or gavaged/orally (C) at the indicated concentrations. After 2 h spleens were removed, single cell suspensions prepared and the splenocytes cultured for 3 days in the presence (▪), or absence (□) of SRBC. Thymidine incorporation for final 16 hours of culture was determined. The data is presented as the mean±SEM of 3 separate experiments separate experiments, each in quintuplets.
Mice were immunized with SRBC. After 5 days they were given β-thia-21:3n-3 at the indicated doses i.p. After 2 hours the spleens were removed and processed into single cell suppressions. These were then cultured in the presence (□), or absence of (▪) of SRBC to assess the proliferation. The results are expressed as mean±SEM of 3 experiments. (B) Effect of β-oxa-21:3n-3 on tetanus toxoid (TT)-induced ex vivo lymphocyte responses. Mice were immunized with TT subcutaneously and after 7 days were given β-oxa-21:3n-3 in mouse serum, intraperitoneally. Two hours later the spleen removed, single cell suspension prepared and examined for lymphoproliferation responses to TT in 5 day cultures. The results are expressed as mean±SEM of 3 experiments.
as §1
Background: Uptake of a labelled nucleoside into DNA is a usual measure of proliferation.

Setting [4] is: IP- or IV-administered, 3 days culture, thymidine incorporation.

`CC/C=C\C/C=C\C/C=C\CCCCCCCCOCC(=O)O` [β-oxa-21:3n-3]: in the data set on Th1 and Th2 cytokines (PHA-PMA-stimulated splenocytes), the IL-2 secretion result is recorded as “higher levels”; the “levels of IL-4, IL-5, TNFα and IFNγ” value is recorded as “no substantial increase”. Besides, in the data set on Th1 and Th2 cytokines (PMA-A23187-stimulated splenocytes), the IFNγ secretion entry is “reduction”. Besides, in the data set on Th1 and Th2 cytokines (PMA-A23187-stimulated splenocytes, apart from IFNγ), the cytokine secretion entry was “did not result in any substantial differences”. Besides, in data set [1], the “antigen-induced macrophage cytokine levels (MCP-1, KC, IL-12)” value is “no significant effects”; the “antigen-stimulated Th1 cytokines (IL-2, IL-6, IFNγ and TNFα)” value is listed as “concentration-dependent reduction”; the “antigen-stimulated Th2 cytokines (IL-4, IL-5, IL-10 and IL-13)” value is listed as “concentration-dependent reduction”. Moreover, the IC50 in the data set on human lymphocytes worked out at 30 µM. For the same molecule, in the data set on spleen cells (spleen cells from treated SRBC-sensitized mice), the “viable cells (excluded propidium iodide)” value is recorded as more than 95%. The “viable cell numbers versus vehicle-treated mice” value with spleen cells (spleen cells, SRBC-sensitized mice) is “no major difference”. In the data set on splenocytes [2] (setting [4]), the “splenocyte proliferation in response to PHA-PMA” value is on record as “not affected in their responsiveness” and the “splenocyte proliferation in response to PMA-A23187” value is “not affected in their responsiveness”. The splenocyte adherence result in the data set with splenocytes [2] (PHA and PMA stimulation for 4 h, SRBC pre-sensitized mice) is listed as “not affected”. The “splenocyte proliferation in response to PHA alone” value with splenocytes [2] (not shown) was “did not affect”. The “inhibition of splenocyte proliferation, duration of effect” value with splenocytes [3] (ex-vivo SRBC challenge 1, 2 and 6 days after single administration (80 mg/kg IP)) is reported as “significant inhibition”. The antigen-dependent splenocyte proliferation result with splenocytes [3] (intravenous, in syngeneic mouse serum, compared with IP) was “even more pronounced”. For the same molecule, in the data set on splenocytes [3] (orally administered (gavage), in mouse serum), the “antigen-dependent proliferation of splenocytes” value is given as “significantly depressed”. The “antigen-dependent proliferation of splenic lymphocytes, ex-vivo” value in the data set with splenocytes [3] (single IP injection in 7% DMSO, 2 h, SRBC pre-sensitized mice) is recorded as “dose-dependent inhibition”.

The term IC50 denotes the midpoint of a concentration-inhibition curve.

(Values after patent publication US20100104546A1, “MODULATORS OF ANTIGEN-DEPENDENT T CELL PROLIFERATION” (CHILDREN, YOUTH AND WOMEN'S HEALTH SERVICE, priority 2007, published 2010).)
